Data published in patent US20070203159A1, “Purine compounds” (priority 2006, published 2007).
In brackets after ≈: the same amount, converted by molar mass. Where two headings read alike, the source gives them in different places.

Columns and labels:
[1] = tested on: Mycobacterium tuberculosis H37Rv (ATCC 27294); experiment: Microplate Alamar Blue Assay (MABA): primary screening and MIC determination; type: cell-based; conditions: retest at lower concentrations in the MABA
[2] = Mycobacterium tuberculosis, read-out: MIC

## COc1ccc(Cn2c(Cl)nc3c(-c4ccc(Cl)o4)ncnc32)cc1
other
  melting point: 166 to 168 °C

## CCSc1nc(-c2ccco2)c2ncn(Cc3ccc(OC)cc3)c2n1
other
  melting point: 116 to 117 °C

## CCCOc1nc(-c2ccco2)c2ncn(Cc3ccc(OC)cc3)c2n1
other
  melting point: 119 °C

## COc1ccc(Cn2cnc3c(-c4ccco4)nc(OC(C)C)nc32)cc1
other
  melting point: 145 to 146 °C

## CCCCOc1nc(-c2ccco2)c2ncn(Cc3ccc(OC)cc3)c2n1
other
  melting point: 113 °C

## COc1ccc(Cn2cnc3c(-c4ccco4)nc(OCc4ccccc4)nc32)cc1
other
  melting point: 122 °C

## COc1ccc(Cn2cnc3c(-c4ccco4)nc(I)nc32)cc1
other
  melting point: 145 to 148 °C

## COc1ccc(Cn2cnc3c(-c4ccco4)nc(NC(C)=O)nc32)cc1
other
  melting point: 167 to 168 °C

## COc1ccc(Cn2cnc3c(-c4ccco4)nc(N(C(C)=O)C(C)=O)nc32)cc1
other
  melting point: 187 to 189 °C

## CNc1nc(-c2ccco2)c2ncn(Cc3ccc(OC)cc3)c2n1
other
  melting point: 144 to 145 °C

## COc1ccc(Cn2cnc3c(-c4ccco4)nc(N(C)C)nc32)cc1
other
  melting point: 163 to 164 °C

## CCOc1nc(-c2ccco2)c2ncn(Cc3ccc(OC)cc3)c2n1
other
  melting point: 137 to 138 °C

## CC#Cc1nc(-c2ccco2)c2ncn(Cc3ccc(OC)cc3)c2n1
other
  melting point: 158 to 160 °C

## 2-Chloro-6-(2-furyl)-9-(4-methyloxyphenylmethyl)-9H-purine [Example 50]
[1]
  MIC: 0.78 µg/mL

## 2-Cyclopentenyl-6-(2-furyl)-9-(4-methoxyphenylmethyl)-9H-purine [Example 81]
[1]
  MIC: 6.25 µg/mL

## Clc1ccc(Cn2cnc3c(-c4ccco4)ncnc32)cc1 [Example 27, 9-(4-Chlorophenylmethyl)-6-(2-furyl)-9H-purine]
[1]; [2]
  MIC: 6.25 µg/mL (≈ 20.1 µM)
other
  melting point: 156 to 159 °C

## Clc1ccc(Cn2cnc3c(-c4ccco4)ncnc32)cc1Cl [Example 28, 9-(3,4-Dichlorophenylmethyl)-6-(2-furyl)-9H-purine]
[1]; [2]
  MIC: 6.25 µg/mL (≈ 18.1 µM)
other
  melting point: 183 to 185 °C

## Fc1ccc(Cn2cnc3c(-c4ccco4)ncnc32)cc1 [Example 29, 9-(4-Fluorophenylmethyl)-6-(2-furyl)-9H-purine]
[1]; [2]
  MIC: 6.25 µg/mL (≈ 21.2 µM)
other
  melting point: 162 to 164 °C

## FC(F)(F)c1ccc(Cn2cnc3c(-c4ccco4)ncnc32)cc1 [Example 30, 6-(2-Furyl)-9-(4-trifluoromethylphenylmethyl)-9H-purine]
other
  melting point: 159 to 161 °C

## Cc1ccc(Cn2cnc3c(-c4ccco4)ncnc32)cc1 [Example 31, 6-(2-Furyl)-9-(4-methylphenylmethyl)-9H-purine]
[1]; [2]
  MIC: 3.13 µg/mL (≈ 10.8 µM)
other
  melting point: 166 to 167 °C

## CC(C)(C)c1ccc(Cn2cnc3c(-c4ccco4)ncnc32)cc1 [Example 32, 9-(4-tert-Butylphenylmethyl)-6-(2-furyl)-9H-purine]
[1]; [2]
  MIC: 12.5 µg/mL (≈ 37.6 µM)
other
  melting point: 185 to 187 °C

## COc1cccc(Cn2cnc3c(-c4ccco4)ncnc32)c1 [Example 34, 6-(2-Furyl)-9-(3-methoxyphenylmethyl)-9H-purine]
[1]; [2]
  MIC: 6.25 µg/mL (≈ 20.4 µM)
other
  melting point: 138 to 139 °C

## COc1ccc(Cn2cnc3c(-c4ccco4)ncnc32)cc1C [Example 35, 6-(2-Furyl)-9-(4-methoxy-3-methylphenylmethyl)-9H-purine]
[1]; [2]
  MIC: 0.78 µg/mL (≈ 2.43 µM)
other
  melting point: 169 to 170 °C

## COc1cc(Cn2cnc3c(-c4ccco4)ncnc32)cc(OC)c1OC [Example 36, 6-(2-Furyl)-9-(3,4,5-trimethoxyphenylmethyl)-9H-purine]
other
  melting point: 195 to 196 °C

## FC(F)(F)Oc1ccc(Cn2cnc3c(-c4ccco4)ncnc32)cc1 [Example 37, 6-(2-Furyl)-9-(4-trifluoromethoxyphenylmethyl)-9H-purine]
other
  melting point: 146 to 147 °C

## FC(F)(F)Oc1cccc(Cn2cnc3c(-c4ccco4)ncnc32)c1 [Example 38, 6-(2-Furyl)-9-(3-trifluoromethoxyphenylmethyl)-9H-purine]
other
  melting point: 133 to 135 °C

## CCOc1ccc(Cn2cnc3c(-c4ccco4)ncnc32)cc1 [Example 39, 9-(4-Ethoxyphenylmethyl)-6-(2-furyl)-9H-purine]
[1]; [2]
  MIC: 3.13 µg/mL (≈ 9.77 µM)
other
  melting point: 165 to 166 °C

## c1ccc(COc2ccc(Cn3cnc4c(-c5ccco5)ncnc43)cc2)cc1 [Example 40, 9-(4-Benzyloxyphenylmethyl)-6-(2-furyl)-9H-purine]
[1]; [2]
  MIC: 1.56 µg/mL (≈ 4.08 µM)
other
  melting point: 145 to 146 °C

## Oc1ccc(Cn2cnc3c(-c4ccco4)ncnc32)cc1 [Example 41, 6-(2-Furyl)-9-(4-hydroxyphenylmethyl)-9H-purine]
other
  melting point: 231 to 233 °C

## CC(=O)Nc1ccc(Cn2cnc3c(-c4ccco4)ncnc32)cc1 [Example 44, 9-(4-Acetamidophenylmethyl)-6-(2-furyl)-9H-purine]
other
  melting point: 278 to 280 °C

## Nc1ccc(Cn2cnc3c(-c4ccco4)ncnc32)cc1 [Example 45, 9-(4-Aminophenylmethyl)-6-(2-furyl)-9H-purine]
other
  melting point: 195 to 197 °C

## Clc1ccc(Cn2cnc3c(-c4ccco4)nc(Cl)nc32)cc1 [Example 46, 2-Chloro-9-(4-chlorophenylmethyl)-6-(2-furyl)-9H-purine]
[1]; [2]
  MIC: 1.56 µg/mL (≈ 4.52 µM)

## COc1ccc(Cn2cnc3c(-c4ccco4)nc(F)nc32)cc1 [Example 57, 2-Fluoro-6-(2-furyl)-9-(4-methoxyphenylmethyl)-9H-purine]
other
  melting point: 210 to 215 °C

## COc1ccc(Cn2cnc3c(-c4ccco4)nc(N)nc32)cc1 [Example 61, 2-Amino-6-(2-furyl)-9-(4-methoxyphenylmethyl)-9H-purine]
other
  melting point: 235 to 237 °C (dec.)

## COc1ccc(CNc2nc(-c3ccco3)c3ncn(Cc4ccc(OC)cc4)c3n2)cc1 [Example 65, 6-(2-Furyl)-2-(4-methoxyphenylmethylamino)-9-(4-methoxyphenylmethyl)-9H-purine]
other
  melting point: 153 to 154 °C

## COc1ccc(Cn2cnc3c(-c4ccco4)nc(S(C)(=O)=O)nc32)cc1 [Example 70, 6-(2-Furyl)-9-(4-methoxyphenylmethyl)-2-methylsulfonyl-9H-purine]
other
  melting point: 184 to 185 °C

## COc1ccc(Cn2cnc3c(-c4ccco4)nc([N+](=O)[O-])nc32)cc1 [Example 72, 6-(2-Furyl)-9-(4-methoxyphenylmethyl)-2-nitro-9H-purine]
other
  melting point: 182 to 183 °C

## COc1ccc(Cn2cnc3c(-c4ccco4)nc(OC)nc32)cc1 [Example 74, 6-(2-Furyl)-2-methoxy-9-(4-methoxyphenylmethyl)-9H-purine]
other
  melting point: 167 to 169 °C

## COc1ccc(Cn2cnc3c(-c4ccco4)nc(C)nc32)cc1 [Example 76, 6-(2-Furyl)-9-(4-methoxyphenylmethyl)-2-methyl-9H-purine]
other
  melting point: 127 to 130 °C

## CCc1nc(-c2ccco2)c2ncn(Cc3ccc(OC)cc3)c2n1 [Example 77, 2-Ethyl-6-(2-furyl)-9-(4-methoxyphenylmethyl)-9H-purine]
other
  melting point: 119 to 120 °C

## COc1ccc(Cn2cnc3c(-c4ccco4)nc(C(C)C)nc32)cc1 [Example 78, 6-(2-Furyl)-9-(4-methoxyphenylmethyl)-2-(1-methylethyl)-9H-purine]
other
  melting point: 123 °C

## CCCCc1nc(-c2ccco2)c2ncn(Cc3ccc(OC)cc3)c2n1 [Example 79, 2-n-Butyl-6-(2-furyl)-9-(4-methoxyphenylmethyl)-9H-purine]
other
  melting point: 103 °C

## COc1ccc(Cn2cnc3c(-c4ccco4)nc(C4CC4)nc32)cc1 [Example 80, 2-Cyclopropyl-6-(2-furyl)-9-(4-methoxyphenylmethyl)-9H-purine]
other
  melting point: 115 to 116 °C

## C=Cc1nc(-c2ccco2)c2ncn(Cc3ccc(OC)cc3)c2n1 [Example 82, 2-Ethenyl-6-(2-furyl)-9-(4-methoxyphenylmethyl)-9H-purine]
other
  melting point: 94 to 95 °C

## C=C(OCC)c1nc(-c2ccco2)c2ncn(Cc3ccc(OC)cc3)c2n1 [Example 83, 2-(1-Ethoxyvinyl)-6-(2-furyl)-9-(4-methoxyphenylmethyl)-9H-purine]
other
  melting point: 144 to 145 °C

## COc1ccc(Cn2cnc3c(-c4ccco4)nc(-c4ccccc4)nc32)cc1 [Example 84, 6-(2-Furyl)-9-(4-methoxyphenylmethyl)-2-phenyl-9H-purine]
other
  melting point: 140 to 142 °C

## COc1ccc(Cn2cnc3c(-c4ccco4)nc(C(C)=O)nc32)cc1 [Example 86, 2-Acetyl-6-(2-furyl)-9-(4-methoxyphenylmethyl)-9H-purine]
other
  melting point: 166 to 167 °C

## COc1ccc(Cn2cnc3c(-c4ccco4)nc(C#N)nc32)cc1 [Example 87, 6-(2-Furyl)-9-(4-methoxyphenylmethyl)-9H-purine-2-carbonitrile]
other
  melting point: 205 to 207 °C

## C#Cc1nc(-c2ccco2)c2ncn(Cc3ccc(OC)cc3)c2n1 [Example 89, 2-Ethynyl-6-(2-furyl)-9-(4-methoxyphenylmethyl)-9H-purine]
other
  melting point: 155 °C

## COc1ccc(Cn2cnc3c(-c4ccco4)nc(C(F)(F)F)nc32)cc1 [Example 94, 6-(2-Furyl)-9-(4-methoxyphenylmethyl)-2-trifluoromethyl-9H-purine]
other
  melting point: 149 to 150 °C

## COc1ccc(Cn2c(Cl)nc3c(-c4ccco4)ncnc32)cc1 [Example 99, 8-Chloro-6-(2-furyl)-9-(4-methoxyphenylmethyl)-9H-purine]
other
  melting point: 156 to 157 °C

## COc1ccc(Cn2c(Br)nc3c(-c4ccco4)ncnc32)cc1 [Example 101, 8-Bromo-6-(2-furyl)-9-(4-methoxyphenylmethyl)-9H-purine]
other
  melting point: 150 to 151 °C

## COc1ccc(Cn2c(-c3ccco3)nc3c(-c4ccco4)ncnc32)cc1 [Example 103, 6,8-Di(2-furyl)-9-(4-methoxyphenylmethyl)-9H-purine]
other
  melting point: 134 to 136 °C

## COc1ccc(Cn2c(OC)nc3c(-c4ccco4)ncnc32)cc1 [Example 104, 6-(2-Furyl)-8-methoxy-9-(4-methoxyphenylmethyl)-9H-purine]
other
  melting point: 143 to 144 °C

## COc1ccc(Cn2c(O)nc3c(-c4ccco4)ncnc32)cc1 [Example 105, 6-(2-Furyl)-8-hydroxy-9-(4-methoxyphenylmethyl)-9H-purine]
other
  melting point: 249 to 251 °C
